In patent publication US20080233208A1, “USE OF ERIANIN IN PREPARING PHARMACEUTICAL FOR TREATING TUMORS” (The Jiang Cell Biomedical Research Co., Ltd., priority 2007, published 2008):

Tests used:
[1] = mice bearing Lewis lung cancer, i.p. x 10 qd
Lewis lung cancer = test: Tumor inhibition in murine model with Lewis lung cancer; assay type: in vivo, C57BL/6J mice; conditions: for Tumor inhibiting rate / Tumor weight: 19th day after inoculation
[2] = in vivo; cited from earlier work
[3] = test system: human leukemia HL-60 cells; conditions: cited from earlier work
tumor cell strain K256 = conditions: among dihydrobibenzyls and phenanthrenes in Dendrobium chrysotoxum; cited from earlier work
[4] = compared with 5FU; cited from earlier work
liver cancer of mouse = conditions: cited from earlier work

## O=P1(N(CCCl)CCCl)NCCCO1 (stereo not shown) [CTX, Cyclophosphamide, reference compound]
[1]
  General condition of the mice (signs of toxicity): signs of athrepsia, listlessness, and pilo-erection
Lewis lung cancer; 30 mg/kg i.p. x 10 qd
  Tumor inhibiting rate: 63.2%
  Tumor weight: 0.96 ± 0.13

## COc1ccc(/C=C\c2cc(OC)c(OC)c(OC)c2)cc1O [Combretastatin A-4]
[2]
  LD50: 500 mg/kg

## N.N.[Cl][Pt][Cl] [DDP, Cisplatin, reference compound]
Lewis lung cancer; 1 mg/kg i.p. x 10 qd
  Tumor inhibiting rate: 51.4%
  Tumor weight: 1.26 ± 0.15

## COc1ccc(CCc2cc(OC)c(OC)c(OC)c2)cc1O [Erianin]
[1]
  Death: no death occurred
  General condition of the mice (signs of toxicity): normal appetite, bright hair and free movements
[3]
  inhibition of growth of HL-60 cells: significantly inhibited
Tumor cell strain K256
  inhibitory effect on the growth of tumor cell strain K256: most active
[4]
  toxic side effect: far lower than 5FU
Liver cancer of mouse
  tumor inhibitory rate: 50.82%
Lewis lung cancer; 50 mg/kg i.p. x 10 qd
  Tumor inhibiting rate: 38.8%
  Tumor weight: 1.59 ± 0.26
Lewis lung cancer; 100 mg/kg i.p. x 10 qd
  Tumor inhibiting rate: 46.0%
  Tumor weight: 1.40 ± 0.31
Lewis lung cancer; 200 mg/kg i.p. x 10 qd
  Tumor inhibiting rate: 55.6%
  Tumor weight: 1.15 ± 0.14
Lewis lung cancer; mice bearing Lewis lung cancer, in words
  Result assessment of tumor inhibiting effect: quite effective
